Target: Translocator protein (Rattus norvegicus, UniProt P16257)
Test: Inhibitory activity against specific binding of [3H]-CB 34 to peripheral benzodiazepine receptor in rat cortical membranes was evaluated
Type: cell membranes, Membrane

Chain of Translocator protein (P16257 whole entry, looked up): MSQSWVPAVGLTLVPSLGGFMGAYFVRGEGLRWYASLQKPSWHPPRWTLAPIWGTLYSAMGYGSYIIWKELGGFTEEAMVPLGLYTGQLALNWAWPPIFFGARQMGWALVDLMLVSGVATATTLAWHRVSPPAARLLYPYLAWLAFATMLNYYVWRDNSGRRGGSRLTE

Row | Structure (SMILES) | IC50 [nM]
1 | O=C(NCc1ccccc1)c1cc(-c2ccccc2)c2ccccc2c1 | 2700
2 | C#CCN(C)C(=O)c1nc2ccccc2c(-c2ccccc2)c1C | 32
3 | CCN(Cc1ccccc1)Cc1c(C(=O)N(C)Cc2ccccc2)nc2ccccc2c1-c1ccccc1 | 13
4 | O=C(NCc1ccccc1)c1cc(-c2ccccc2)c2ccccc2n1 | 11500
5 | CN(Cc1ccccc1)C(=O)c1nc2ccccc2c(-c2ccccc2)c1CO | 8.7
6 | Cc1c(C(=O)N(Cc2ccccc2)Cc2ccccc2)nc2ccccc2c1-c1ccccc1 | 11
7 | Cc1c(C(=O)N(C)Cc2ccccc2)cc2ccccc2c1-c1ccccc1 | 9.8
8 | Cc1c(C(=O)NCc2ccccc2)nc2ccccc2c1-c1ccccc1F | 1490
9 | Cc1c(C(=O)N(C)Cc2ccccc2)nc2ccccc2c1-c1ccccc1 | 4.6
10 | CN(Cc1ccccc1)C(=O)c1cc(-c2ccccc2)c2ccccc2c1 | 64
11 | Cc1c(C(=O)N(C)Cc2ccccc2)nc2ccccc2c1-c1ccccc1F | 2.2
12 | CCN(CC)Cc1c(C(=O)N(C)Cc2ccccc2)nc2ccccc2c1-c1ccccc1 | 12
13 | CN(Cc1ccccc1)C(=O)c1cc(-c2ccccc2)c2ccccc2n1 | 38
14 | Cc1c(C(=O)NCc2ccccc2)cc2ccccc2c1-c1ccccc1 | 6600
15 | CN(Cc1ccccc1)C(=O)c1nc2ccccc2c(-c2ccccc2)c1CCl | 0.45
16 | Cc1c(C(=O)NCc2ccccc2)nc2ccccc2c1-c1ccccc1 | 10300
